System: S. aureus mature biofilm
Assay: Colony biofilm model, mature biofilm
Assay type: cell-based, Staphylococcus aureus
Conditions: FIG. 9a; powder amount estimated equal to that in the CPO-loaded MN sample, 24 h
Description: Biofilm Antibacterial Studies. Antibiofilm activity of MNs loaded with CPO was evaluated by the colony biofilm model. Overnight cultures of S. aureus and P. aeruginosa were diluted to 2×10^5 CFU mL−1 with TSB. Next, 50 μL of the diluted bacterial suspension was inoculated onto sterile 10 mm nitrocellulose disks placed on the surface of tryptic soy agar (TSA) plates. To allow biofilm development on the nitrocellulose membrane, the plates were incubated at 37° C. for 72 h. The developed biofilm was then nourished by aseptically transferring to new TSA plates every day for 4 days.31,38 After maturation of the biofilms, 12 mm disks of MNs loaded with CPO and control samples including PET films, CPO powder, and 12 mm disks of MNs without CPO were placed onto the biofilm using sterile forceps. The quantity of CPO powder in the control was estimated to be the amount of CPO powder present in the sample of MNs loaded with CPO. For all experiments, biofilms without any treatments were used as the negative control. The plates were further incubated at 37° C. for 24 h immediately after each treatment. […] The plates were further incubated at 37° C. for 24 h and viable CFU mL−1 were calculated.

SMILES: [Ca+2].[O-][O-] [CPO, calcium peroxide]
- effect on number of colonies in biofilm: did not affect the number of colonies

Source: patent US20240382730A1, “FLEXIBLE MICRONEEDLE ARRAY PATCH FOR CHRONIC WOUND OXYGENATION AND BIOFILM ERADICATION” (Purdue Research Foundation, priority 2021, published 2024)
